Results published in US20250326748A1, “COMPOUNDS AND METHODS FOR MODULATING SPLICING” (REMIX THERAPEUTICS INC., priority 2022, published 2025).
Like-named read-outs stand apart in the source and are kept apart here.

Tested on: MYB mRNA
Experiment: Splicing RT-qPCR assay, MYB canonical (CJ) and alternative (AJ) junction mRNA
Assay type: cell-based, human
Settings: Homo sapiens; for IC50: canonical junction mRNA; for AC50: alternative junction mRNA, read-out: MYB AJ (AC50, increase in AJ mRNA)
Method in brief: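 One-step RT-qPCR on cell lysates quantified CJ and AJ isoforms, normalized to PPIA for A673 or GAPDH/GUSB for K562. Cells were exposed for 24 h at 37° C to 11 concentrations in 3-fold steps up to 10 uM, with DMSO ≤0.25%. A673 were grown in DMEM and K562 in IMDM, both with 10% FBS.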

[1] = qPCR panel, read-out: MYB CJ (decrease in CJ mRNA levels, IC50)
[2] = RT-qPCR, A673 or K562 cells, 24 hours treatment
[3] = RT-qPCR, A673 or K562 cells, 24 hours treatment, read-out: MYB CJ (IC50, decrease in CJ mRNA)

Compound | IC50 [1] | IC50 [3] | AC50 [2]
Cn1cc2cc(-c3cnc4cc(N5CC[C@H](NC6CC6)C5)ccc4n3)c(O)c(F)c2n1 [Compound 176, 5-[6-[(3S)-3-(cyclopropylamino)318quinoxaline-1-yl]318quinoxaline-2-yl]-7-fluoro-2-methyl-indazol-6-ol] | < 100 nM | < 100 nM | < 100 nM
COc1nc(-c2cc3cn(C)nc3c(C)c2O)nc2ncc(N3CCNCC3)cc12 [Compound 162, 5-[4-methoxy-6-(piperazin-1-yl)pyrido[2,3-d]pyrimidin-2-yl]-2,7-dimethylindazol-6-ol] | < 100 nM | < 100 nM | < 100 nM
Cc1c(O)c(-c2ncc3cc(N4CC[C@H](N)C4)cnc3n2)cc2cn(C)nc12 [Compound 160, (S)-5-(6-(3-aminopyrrolidin-1-yl)pyrido[2,3-d]pyrimidin-2-yl)-2,7-dimethyl-2H-indazol-6-ol 2,2,2-trifluoroacetate] | < 100 nM | < 100 nM | < 100 nM
Cc1c(O)c(-c2cc(Cl)c3cc(N4CCNCC4)cnc3n2)cc2cn(C)nc12 [Compound 154, 5-[4-chloro-6-(piperazin-1-yl)-1,8-naphthyridin-2-yl]-2,7-dimethylindazol-6-ol] | < 100 nM | < 100 nM | < 100 nM
Cc1cn2nc(-c3ccc4cc(N(C)C5CCNCC5)cnc4n3)cc(C)c2n1 [Compound 205, 7-{2,8-dimethylimidazo[1,2-b]pyridazin-6-yl}-N-methyl-N-(piperidin-4-yl)-1,8-naphthyridin-3-amine] | 1000 to 10000 nM | 1000 to 10000 nM | 1000 to 10000 nM
CNC1CCN(c2cnc3nc(-c4cc5cn(C)nc5c(C)c4O)ccc3n2)C1 (stereo not drawn) [Compound 192, 2,7-dimethyl-5-{2-[3-(methylamino)337pyrrolidine-1-yl]pyrido[2,3-b]pyrazin-6-yl}indazol-6-ol] | 100 to 1000 nM | 100 to 1000 nM | 100 to 1000 nM
Cc1c(O)c(-c2ccc3nc(N4C[C@@H](C)N[C@@H](C)C4)cnc3n2)cc2cn(C)nc12 [Compound 195, 5-{2-[(3R,5S)-3,5-dimethylpiperazin-1-yl]pyrido[2,3-b]pyrazin-6-yl}-2,7-dimethylindazol-6-ol] | 100 to 1000 nM | 100 to 1000 nM | 100 to 1000 nM
Cc1c(O)c(-c2ccc3nc(N4CCNCC4)cnc3n2)cc2cn(C)nc12 [Compound 197, 2,7-dimethyl-5-[2-(piperazin-1-yl)pyrido[2,3-b]pyrazin-6-yl]indazol-6-ol] | 100 to 1000 nM | 100 to 1000 nM | 100 to 1000 nM
Cn1cc2cc(-c3cc(Cl)c4cc(N5CCNCC5)cnc4n3)c(O)c(F)c2n1 [Compound 155, 5-[4-chloro-6-(piperazin-1-yl)-1,8-naphthyridin-2-yl]-7-fluoro-2-methylindazol-6-ol] | < 100 nM | < 100 nM | < 100 nM
CNC1CCN(c2cnc3nc(-c4cc(F)c5nc(C)cn5c4)ccc3c2)C1 (stereo not drawn) [Compound 100, 1-(7-{8-fluoro-2-methylimidazo[1,2-a]pyridin-6-yl}-1,8-naphthyridin-3-yl)-N-methylpyrrolidin-3-amine] | < 100 nM | < 100 nM | < 100 nM

More lines, main results first:

IC50 [1] | IC50 [3] | Compound | AC50 [2]
1000 to 10000 nM | 1000 to 10000 nM | Cc1cn2nc(-c3ccc4cc(NC5CCNCC5)cnc4n3)cc(C)c2n1 [Compound 210, 7-{2,8-dimethylimidazo[1,2-b]pyridazin-6-yl}-N-(piperidin-4-yl)-1,8-naphthyridin-3-amine; trifluoroacetic acid] | 1000 to 10000 nM
> 10000 nM | > 10000 nM | Cc1c(O)c(-c2cc(-c3ccccn3)c3cc(N4C[C@@H](C)N[C@@H](C)C4)cnc3n2)cc2cn(C)nc12 [Compound 217, 5-{6-[(3R,5S)-3,5-dimethylpiperazin-1-yl]-4-(pyridin-2-yl)-1,8-naphthyridin-2-yl}-2,7-dimethylindazol-6-ol] | > 10000 nM
< 100 nM | < 100 nM | C[C@H]1CN(c2cnc3nc(-c4cc(F)c5nn(C)cc5c4)cc(Cl)c3c2)C[C@H](C)N1 [Compound 250] | < 100 nM
< 100 nM | < 100 nM | CN[C@@H]1CCN(c2cnc3nc(-c4cc5cn(C)nc5c(C)c4O)nc(OC)c3c2)C1 [Compound 211, 5-{4-methoxy-6-[(3R)-3-(methylamino)pyrrolidin-1-yl]pyrido[2,3-d]pyrimidin-2-yl}-2,7-dimethylindazol-6-ol] | < 100 nM
100 to 1000 nM | 100 to 1000 nM | Cn1cc2cc(-c3cc(Cl)c4cc(N5CCN6CCCC6C5)cnc4n3)cc(F)c2n1 (stereo not drawn) [Compound 216, 4-chloro-2-(7-fluoro-2-methylindazol-5-yl)-6-{hexahydro-1H-pyrrolo[1,2-a]pyrazin-2-yl}-1,8-naphthyridine trifluoroacetic acid] | 100 to 1000 nM
< 100 nM | < 100 nM | CN[C@H]1CCN(c2cnc3nc(-c4cc5cn(C)nc5c(C)c4O)nc(OC)c3c2)C1 [Compound 212, 5-{4-methoxy-6-[(3S)-3-(methylamino)pyrrolidin-1-yl]pyrido[2,3-d]pyrimidin-2-yl}-2,7-dimethylindazol-6-ol] | < 100 nM
100 to 1000 nM | 100 to 1000 nM | Cc1c(O)c(-c2ncc3cc(N4C[C@@H](C)N[C@@H](C)C4)cnc3n2)cc2cn(C)nc12 [Compound 214] | 100 to 1000 nM
100 to 1000 nM | 100 to 1000 nM | Cn1cc2cc(-c3ccc4cc(N5CC[C@H](NC(C)(C)C)C5)cnc4n3)c(O)cc2n1 (single isomer, unassigned) [Compound 200] | 100 to 1000 nM
1000 to 10000 nM | 1000 to 10000 nM | Cn1cc2cc(-c3ccc4cc(N5CC[C@@H](NC(C)(C)C)C5)cnc4n3)c(O)cc2n1 [Compound 199] | 1000 to 10000 nM
